# Assay results reported in article PMC9851200, “Multiparameter phenotypic screening for endogenous TFEB and TFE3 translocation identifies novel chemical series modulating lysosome function” (Autophagy, 2022).
# Key:
# Type in all cases: binding
# [1] = biological target: T1, kinases (KINOMEscan panel) (Homo sapiens, UniProt P35626); conditions: GRK3; NEW KINOMEscan
# T1 sequence (P35626 1-688): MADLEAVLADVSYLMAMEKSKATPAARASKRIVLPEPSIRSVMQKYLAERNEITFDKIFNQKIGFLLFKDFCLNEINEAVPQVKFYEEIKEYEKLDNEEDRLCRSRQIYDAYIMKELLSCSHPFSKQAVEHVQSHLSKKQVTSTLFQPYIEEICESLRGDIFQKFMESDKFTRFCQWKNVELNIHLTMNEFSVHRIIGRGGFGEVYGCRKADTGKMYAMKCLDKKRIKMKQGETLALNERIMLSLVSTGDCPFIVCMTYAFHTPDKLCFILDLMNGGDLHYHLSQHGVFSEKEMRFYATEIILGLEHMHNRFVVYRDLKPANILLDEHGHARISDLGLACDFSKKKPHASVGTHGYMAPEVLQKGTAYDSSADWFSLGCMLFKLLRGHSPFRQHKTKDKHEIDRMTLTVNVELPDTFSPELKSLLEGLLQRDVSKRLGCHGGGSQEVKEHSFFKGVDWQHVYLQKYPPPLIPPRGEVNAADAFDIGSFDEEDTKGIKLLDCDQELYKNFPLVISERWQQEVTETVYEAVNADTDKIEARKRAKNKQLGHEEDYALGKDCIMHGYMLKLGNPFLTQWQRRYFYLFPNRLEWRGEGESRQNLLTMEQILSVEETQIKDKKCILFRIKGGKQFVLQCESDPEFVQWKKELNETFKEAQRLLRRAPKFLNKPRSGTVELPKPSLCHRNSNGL
# [2] = biological target: T2, kinases (KINOMEscan panel) (Homo sapiens, UniProt O15111)
# T2 sequence (O15111 1-745): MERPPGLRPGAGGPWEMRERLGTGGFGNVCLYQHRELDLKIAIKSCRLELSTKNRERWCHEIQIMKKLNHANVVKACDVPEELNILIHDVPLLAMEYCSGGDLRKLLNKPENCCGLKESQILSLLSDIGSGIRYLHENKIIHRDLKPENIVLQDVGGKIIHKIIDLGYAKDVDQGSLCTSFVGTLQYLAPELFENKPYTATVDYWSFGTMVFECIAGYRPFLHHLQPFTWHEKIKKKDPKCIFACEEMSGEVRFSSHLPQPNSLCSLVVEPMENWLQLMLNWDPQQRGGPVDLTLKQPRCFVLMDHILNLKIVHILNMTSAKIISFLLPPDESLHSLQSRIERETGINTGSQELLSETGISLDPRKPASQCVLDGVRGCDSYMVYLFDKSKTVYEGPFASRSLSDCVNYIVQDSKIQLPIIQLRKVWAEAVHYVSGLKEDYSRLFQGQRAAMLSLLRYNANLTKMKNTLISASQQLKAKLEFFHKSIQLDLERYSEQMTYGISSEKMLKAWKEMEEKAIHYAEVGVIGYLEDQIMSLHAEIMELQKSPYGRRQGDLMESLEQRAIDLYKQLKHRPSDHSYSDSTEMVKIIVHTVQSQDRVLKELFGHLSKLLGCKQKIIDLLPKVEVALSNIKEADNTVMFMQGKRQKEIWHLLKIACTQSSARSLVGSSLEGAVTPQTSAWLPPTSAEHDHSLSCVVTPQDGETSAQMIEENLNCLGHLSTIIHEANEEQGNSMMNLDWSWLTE
# [3] = biological target: T3, kinases (KINOMEscan panel) (Homo sapiens, UniProt P33981); conditions: NEW KINOMEscan
# T3 sequence (P33981 1-857): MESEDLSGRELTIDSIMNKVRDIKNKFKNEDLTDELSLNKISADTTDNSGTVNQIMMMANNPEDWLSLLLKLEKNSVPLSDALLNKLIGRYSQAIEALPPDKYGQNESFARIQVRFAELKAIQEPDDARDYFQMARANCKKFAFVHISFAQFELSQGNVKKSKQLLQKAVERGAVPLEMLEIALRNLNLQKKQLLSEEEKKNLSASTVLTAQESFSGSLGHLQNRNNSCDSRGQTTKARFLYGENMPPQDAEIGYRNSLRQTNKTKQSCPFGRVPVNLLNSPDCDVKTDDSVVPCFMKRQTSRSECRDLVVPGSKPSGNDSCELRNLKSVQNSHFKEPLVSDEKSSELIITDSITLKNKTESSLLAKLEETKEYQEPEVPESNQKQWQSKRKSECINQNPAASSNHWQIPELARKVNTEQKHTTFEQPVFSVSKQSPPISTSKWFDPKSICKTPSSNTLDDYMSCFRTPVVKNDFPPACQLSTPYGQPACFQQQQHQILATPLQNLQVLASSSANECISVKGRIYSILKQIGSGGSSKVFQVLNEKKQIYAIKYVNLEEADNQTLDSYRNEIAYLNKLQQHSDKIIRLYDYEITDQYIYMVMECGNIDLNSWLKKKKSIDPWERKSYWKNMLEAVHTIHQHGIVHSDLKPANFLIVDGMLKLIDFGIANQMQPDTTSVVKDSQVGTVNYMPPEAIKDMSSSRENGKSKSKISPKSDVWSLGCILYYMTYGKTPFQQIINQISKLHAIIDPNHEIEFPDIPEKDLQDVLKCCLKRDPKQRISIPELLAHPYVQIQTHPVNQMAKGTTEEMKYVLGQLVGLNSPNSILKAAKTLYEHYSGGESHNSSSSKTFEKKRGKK
# [4] = biological target: kinases (KINOMEscan panel) (Homo sapiens, UniProt P54764); conditions: EPHA4; NEW KINOMEscan
# Chain of kinases (KINOMEscan panel) (Homo sapiens, UniProt P54764) (P54764 20-986): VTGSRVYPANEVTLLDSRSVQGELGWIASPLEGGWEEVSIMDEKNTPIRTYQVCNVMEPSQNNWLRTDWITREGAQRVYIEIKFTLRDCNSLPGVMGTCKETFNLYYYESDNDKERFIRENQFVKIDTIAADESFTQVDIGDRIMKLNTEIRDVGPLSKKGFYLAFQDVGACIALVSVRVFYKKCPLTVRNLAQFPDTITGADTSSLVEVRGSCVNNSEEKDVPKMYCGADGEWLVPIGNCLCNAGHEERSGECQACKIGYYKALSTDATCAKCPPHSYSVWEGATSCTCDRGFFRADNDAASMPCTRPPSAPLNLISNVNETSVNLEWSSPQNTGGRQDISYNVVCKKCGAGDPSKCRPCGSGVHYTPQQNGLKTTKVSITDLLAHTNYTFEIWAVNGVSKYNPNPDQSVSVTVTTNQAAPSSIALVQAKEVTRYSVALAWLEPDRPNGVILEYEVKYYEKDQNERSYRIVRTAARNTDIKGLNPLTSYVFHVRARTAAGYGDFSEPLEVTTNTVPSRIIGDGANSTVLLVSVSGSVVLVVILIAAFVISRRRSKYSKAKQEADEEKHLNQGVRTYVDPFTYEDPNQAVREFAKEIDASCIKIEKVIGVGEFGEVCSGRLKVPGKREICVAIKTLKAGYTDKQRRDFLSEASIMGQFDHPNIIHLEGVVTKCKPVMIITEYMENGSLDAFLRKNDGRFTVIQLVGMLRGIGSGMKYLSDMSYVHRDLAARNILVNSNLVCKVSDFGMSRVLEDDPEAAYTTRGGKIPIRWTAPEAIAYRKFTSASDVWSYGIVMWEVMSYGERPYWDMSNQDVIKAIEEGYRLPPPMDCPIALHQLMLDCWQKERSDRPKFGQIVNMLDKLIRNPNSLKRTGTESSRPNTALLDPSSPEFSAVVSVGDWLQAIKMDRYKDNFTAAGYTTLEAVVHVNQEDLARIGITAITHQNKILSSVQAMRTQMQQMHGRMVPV
# [5] = biological target: kinases (KINOMEscan panel) (Homo sapiens, UniProt P06239); conditions: LCK; NEW KINOMEscan
# Chain of kinases (KINOMEscan panel) (Homo sapiens, UniProt P06239) (P06239 whole entry): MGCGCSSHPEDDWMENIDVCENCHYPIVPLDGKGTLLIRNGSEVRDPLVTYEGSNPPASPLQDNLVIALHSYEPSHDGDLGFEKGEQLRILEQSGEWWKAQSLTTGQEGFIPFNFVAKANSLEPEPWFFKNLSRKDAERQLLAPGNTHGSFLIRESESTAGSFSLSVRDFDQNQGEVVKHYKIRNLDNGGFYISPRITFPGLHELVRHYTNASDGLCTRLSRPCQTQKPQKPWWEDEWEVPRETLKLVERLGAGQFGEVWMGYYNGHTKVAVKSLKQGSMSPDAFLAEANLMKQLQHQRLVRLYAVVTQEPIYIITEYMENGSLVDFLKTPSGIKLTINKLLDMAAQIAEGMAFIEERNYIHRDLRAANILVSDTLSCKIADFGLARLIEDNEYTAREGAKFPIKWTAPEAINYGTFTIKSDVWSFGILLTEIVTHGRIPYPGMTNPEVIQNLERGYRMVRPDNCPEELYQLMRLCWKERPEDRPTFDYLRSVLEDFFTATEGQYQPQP
Compound,KINOMEscan GRK3 [1],KINOMEscan CHUK/IKK-alpha [2],KINOMEscan TTK [3],KINOMEscan EPHA4 [4],KINOMEscan LCK [5]
Cc1cccc(-c2nc(Nc3ccc4nn(C)cc4c3)c3ccccc3n2)n1 [NK167],0,0,17,0,0
Cc1cccc(-c2nc(N(C)c3ccc4ncsc4c3)c3ccccc3n2)n1 [NK-161],25,20,26,5,2
